Converted amounts (≈) assume the structure as drawn. Like-named read-outs stand apart in the source and are kept apart here.
Columns and labels:
[1] = tested on: Cryptococcus neoformans (H99/ATCC 208821); experiment: Susceptibility test (CLSI M27-A3 broth microdilution, resazurin readout), MIC90; type: cell-based
[2] = tested on: Histoplasma capsulatum (G217-B/ATCC 26032); experiment: microbe, parasite or virus in culture; type: cell-based; settings: ATCC26032, 144 h
[3] = tested on: C. krusei (ATCC 6258); experiment: Susceptibility test (CLSI M27-A3 broth microdilution, resazurin readout), MIC90; type: cell-based, Candida krusei; settings: Pichia kudriavzevii
[4] = tested on: Trichophyton mentagrophytes (ATCC 11481); experiment: Susceptibility assay for dermatophytes (CLSI M38-A2, resazurin), MIC90; type: cell-based; settings: Trichophyton mentagrophytes, ATCC11481, 96 h, T. mentagrophytes, 35 °C, read-out: MIC90
[5] = in vitro; settings: human
[6] = tested on: C. krusei (ATCC 6258); experiment: Minimum fungicidal concentration (MFC); type: cell-based, Candida krusei; settings: Pichia kudriavzevii, ATCC6258
[7] = tested on: T. rubrum (ATCC 28289); experiment: Susceptibility assay for dermatophytes (CLSI M38-A2, resazurin), MIC90; type: cell-based; settings: Trichophyton rubrum, ATCC28289, 96 h, 35 °C
[8] = tested on: Candida albicans (ATCC 90028); experiment: Susceptibility test (CLSI M27-A3 broth microdilution, resazurin readout), MIC90; type: cell-based; settings: ATCC90028, C. albicans, 24 h, 37 °C
[9] = tested on: C. glabrata (ATCC 90030); experiment: Minimum fungicidal concentration (MFC); type: cell-based, Candida glabrata; settings: Nakaseomyces glabratus, ATCC90030
[10] = tested on: C. glabrata (ATCC 90030); experiment: Susceptibility test (CLSI M27-A3 broth microdilution, resazurin readout), MIC90; type: cell-based, Candida glabrata; settings: Nakaseomyces glabratus, ATCC90030, 24 h, 37 °C
[11] = tested on: T. rubrum (ATCC 28289); experiment: Minimum fungicidal concentration (MFC); type: cell-based, Trichophyton rubrum; settings: Trichophyton rubrum, ATCC28289
[12] = in vivo; settings: AU37 [glp-4 (bn2) I, sek-1 (km4) X], Caenorhabditis elegans, C. elegans larvae viability
Protocol: The experiments were carried out with the mutant strain (AU37 [glp-4 (bn2) I; […]]). The strain was maintained on plates containing nematode growth medium (NGM) seeded with Escherichia coli OP50 at 16 °C. The stage of synchronization of young adults at stage L4 was performed for the toxicity test. About 20 larvae were transferred to each well of 96-well plates containing 100 μL of a medium composed of 60% of 50 mM NaCl; 40% BHI broth; 10 mg/mL cholesterol in ethanol; 200 mg/mL ampicillin and 90 mg/mL kanamycin. Then, 100 μL of dilutions of nitrofuran derivatives (showing the best selectivity index against the fungal species) were added. […] Plates were incubated at 25 °C for 24 h. Survival was assessed by the mobility and shape of the nematode (stick-shaped larvae were considered dead, while sinusoidal larvae were considered alive) under an inverted optical microscope on 40× objective lenses.

[13] = tested on: Cryptococcus neoformans (H99/ATCC 208821); experiment: Minimum fungicidal concentration (MFC); type: cell-based; settings: ATCC208821, C. neoformans
[14] = tested on: Histoplasma capsulatum (G217-B/ATCC 26032); experiment: microbe, parasite or virus in culture; type: cell-based; settings: ATCC26032
[15] = tested on: Trichophyton mentagrophytes (ATCC 11481); experiment: Minimum fungicidal concentration (MFC); type: cell-based; settings: T. mentagrophytes; for fungistatic / fungicidal profile: MFC versus MIC90; for MFC: Trichophyton mentagrophytes, ATCC11481
[16] = tested on: Paracoccidioides brasiliensis (Pb 18); experiment: microbe, parasite or virus in culture; type: cell-based; settings: Paracoccidioides brasiliensis
[17] = tested on: Candida albicans (ATCC 90028); experiment: Minimum fungicidal concentration (MFC); type: cell-based; settings: ATCC90028, C. albicans
[18] = tested on: A549 (ATCC CCL-185) lung epithelial cell line; experiment: Cytotoxicity assay in monolayer by resazurin colorimetric method; type: cell-based; settings: Homo sapiens, A549 cells, 72 h

| SMILES | MIC90 [2] | MIC90 ([1]; ATCC208821, 48 h) | MIC90 [4] | IC50 [5] | MFC [6] | MIC90 [7] | MIC90 [8] | MFC ([9]; C. glabrata, read-out: MFC) | MIC90 [10] | MFC [11] | viability at 24 h, 250 µg/mL [12] | MFC [13] | MFC [14] | fungistatic / fungicidal profile [15] | MFC [15] | MFC [16] | MIC90 ([3]; ATCC6258, 24 h) | MFC [17] | IC50 [18] | other results |
| --- | --- | --- | --- | --- | --- | --- | --- | --- | --- | --- | --- | --- | --- | --- | --- | --- | --- | --- | --- | --- |
| C[C@@H]1[C@H](O)[C@@H](C)/C=C/C=C/C=C/C=C/C=C/C=C/C=C/[C@H](O[C@@H]2O[C@H](C)[C@@H](O)[C@H](N)[C@@H]2O)C[C@@H]2O[C@](O)(C[C@@H](O)C[C@@H](O)[C@H](O)CC[C@@H](O)C[C@@H](O)CC(=O)O[C@H]1C)C[C@H](O)[C@H]2C(=O)O [AmB, amphotericin B, reference compound] | 0.03 µg/mL (≈ 0.0325 µM) |  |  |  |  |  |  |  |  |  |  |  |  |  |  |  |  |  |  | MIC90 ([1]; ATCC208821, C. neoformans, 48 h, 37 °C, read-out: MIC90): 0.06 µg/mL (≈ 0.0649 µM); MIC90 ([3]; ATCC6258, C. krusei, 24 h, 37 °C, read-out: MIC90): 1 µg/mL (≈ 1.08 µM) |
| O=C(NCCc1ccccn1)c1ccc([N+](=O)[O-])o1 [Compound 3, 5-nitro-N-(2-(pyridin-2-yl)ethyl)furan-2-carboxamide] | 3.9 µg/mL (≈ 14.9 µM) | 31.2 µg/mL (≈ 120 µM) | 62.5 µg/mL (≈ 239 µM) | 250 µg/mL (≈ 957 µM) | > 250 µg/mL | 125 µg/mL (≈ 478 µM) | > 250 µg/mL | > 250 µg/mL | > 250 µg/mL | 125 µg/mL (≈ 478 µM) | 82.5% | 62.5 µg/mL (≈ 239 µM) | 3.9 µg/mL (≈ 14.9 µM) | fungistatic profile | 250 µg/mL (≈ 957 µM) | 0.98 µg/mL (≈ 3.75 µM) | 250 µg/mL (≈ 957 µM) | > 250 µg/mL | 231 µg/mL (≈ 885 µM) |  |
| O=C(NCc1ccccn1)c1ccc([N+](=O)[O-])o1 [Compound 4] | 3.9 µg/mL (≈ 15.8 µM) | 31.2 µg/mL (≈ 126 µM) | 31.2 µg/mL (≈ 126 µM) | 135 µg/mL (≈ 547 µM) | 250 µg/mL (≈ 1010 µM) | 125 µg/mL (≈ 506 µM) | 250 µg/mL (≈ 1010 µM) | > 250 µg/mL | > 250 µg/mL | 125 µg/mL (≈ 506 µM) |  | 62.5 µg/mL (≈ 253 µM) | 3.9 µg/mL (≈ 15.8 µM) | fungistatic profile | 250 µg/mL (≈ 1010 µM) | 7.81 µg/mL (≈ 31.6 µM) | 250 µg/mL (≈ 1010 µM) | > 250 µg/mL | 29.5 µg/mL (≈ 119 µM) |  |
| O=C(NCCCc1ccccc1)c1ccc([N+](=O)[O-])o1 [Compound 5] | 1.95 µg/mL (≈ 7.11 µM) | 7.81 µg/mL (≈ 28.5 µM) | 31.2 µg/mL (≈ 114 µM) | 39.8 µg/mL (≈ 145 µM) | 62.5 µg/mL (≈ 228 µM) | 15.7 µg/mL (≈ 57.1 µM) | 125 µg/mL (≈ 456 µM) |  | 125 µg/mL (≈ 456 µM) | 31.2 µg/mL (≈ 114 µM) | 85.7% | 15.6 µg/mL (≈ 56.9 µM) | 1.95 µg/mL (≈ 7.11 µM) |  | 62.5 µg/mL (≈ 228 µM) | 31.2 µg/mL (≈ 114 µM) | 62.5 µg/mL (≈ 228 µM) | 250 µg/mL (≈ 911 µM) | 30.1 µg/mL (≈ 110 µM) | MIC ([1]; ATCC208821, 48 h, read-out: MIC90): 3.9 µg/mL (≈ 14.2 µM); MFC [9]: 125 µg/mL (≈ 456 µM) |
| CN(C)CCCNC(=O)c1ccc([N+](=O)[O-])o1 [Compound 6] | > 250 µg/mL | 250 µg/mL (≈ 1040 µM) | > 250 µg/mL | 15.6 µg/mL (≈ 64.7 µM) | > 250 µg/mL | > 250 µg/mL | > 250 µg/mL | > 250 µg/mL | > 250 µg/mL | > 250 µg/mL |  | 250 µg/mL (≈ 1040 µM) | > 250 µg/mL |  | > 250 µg/mL | 31.2 µg/mL (≈ 130 µM) | > 250 µg/mL | > 250 µg/mL | 13.2 µg/mL (≈ 54.8 µM) |  |
| O=C(NCCc1c[nH]c2ccccc12)c1ccc([N+](=O)[O-])o1 [Compound 7] | 0.98 µg/mL (≈ 3.27 µM) | 62.5 µg/mL (≈ 209 µM) | 125 µg/mL (≈ 418 µM) | 71.2 µg/mL (≈ 238 µM) | > 250 µg/mL | 125 µg/mL (≈ 418 µM) | 250 µg/mL (≈ 835 µM) | > 250 µg/mL | > 250 µg/mL | > 250 µg/mL |  | 62.5 µg/mL (≈ 209 µM) | 0.98 µg/mL (≈ 3.27 µM) |  | > 250 µg/mL | 1.95 µg/mL (≈ 6.52 µM) | 250 µg/mL (≈ 835 µM) | > 250 µg/mL | 8.58 µg/mL (≈ 28.7 µM) |  |

Source: article PMC8950151, “Synthesis and Evaluation of the Antifungal and Toxicological Activity of Nitrofuran Derivatives” (Pharmaceutics, 2022)
